For data set [1], the target named is T1, CYP2C8 (Homo sapiens, UniProt P10632).
T1 sequence (P10632 1-490): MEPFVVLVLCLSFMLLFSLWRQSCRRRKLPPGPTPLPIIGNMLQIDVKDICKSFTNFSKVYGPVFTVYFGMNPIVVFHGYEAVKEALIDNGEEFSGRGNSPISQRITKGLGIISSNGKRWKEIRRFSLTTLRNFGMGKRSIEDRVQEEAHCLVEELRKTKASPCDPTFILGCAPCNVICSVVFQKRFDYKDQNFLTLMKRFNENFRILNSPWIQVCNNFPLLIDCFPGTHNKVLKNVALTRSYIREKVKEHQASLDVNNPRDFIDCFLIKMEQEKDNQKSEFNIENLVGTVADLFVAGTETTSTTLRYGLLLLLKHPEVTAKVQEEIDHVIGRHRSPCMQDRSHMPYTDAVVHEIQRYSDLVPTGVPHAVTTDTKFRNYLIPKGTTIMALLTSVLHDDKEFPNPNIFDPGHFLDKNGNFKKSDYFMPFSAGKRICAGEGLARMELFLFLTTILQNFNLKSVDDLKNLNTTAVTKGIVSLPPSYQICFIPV
In words: Time-dependent inhibition (IC50 shift) of CYP2C8 in human liver microsomes. The note with it: microsomes. The protocol:
Donors CMV negative for serology are unm
All incubations were conducted in duplicate.
% remaining=(C+I/C^−I)*100

Data set [2] concerns the target T2, CYP2B6 (Homo sapiens, UniProt P20813).
T2 sequence (P20813 1-491): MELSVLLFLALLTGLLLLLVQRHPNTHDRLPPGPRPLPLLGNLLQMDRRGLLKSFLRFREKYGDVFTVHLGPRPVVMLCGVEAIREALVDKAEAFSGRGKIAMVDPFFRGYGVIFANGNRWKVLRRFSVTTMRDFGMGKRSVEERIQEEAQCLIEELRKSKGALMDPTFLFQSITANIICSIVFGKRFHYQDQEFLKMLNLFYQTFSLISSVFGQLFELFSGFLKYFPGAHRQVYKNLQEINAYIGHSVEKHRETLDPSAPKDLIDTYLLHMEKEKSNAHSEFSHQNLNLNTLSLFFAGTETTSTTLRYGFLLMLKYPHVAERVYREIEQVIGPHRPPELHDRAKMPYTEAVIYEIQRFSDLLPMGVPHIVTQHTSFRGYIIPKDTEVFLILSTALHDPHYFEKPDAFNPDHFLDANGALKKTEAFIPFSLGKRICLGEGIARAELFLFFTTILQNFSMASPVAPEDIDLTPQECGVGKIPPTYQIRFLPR
In words: biochemical.

The conditions of data set [3]: urine; cited from earlier work.

What is called IC50 is the concentration at which inhibition is half-maximal. In the case of `Cc1ccc(C)c(OCCCC(C)(C)C(=O)O[C@@H]2O[C@H](C(=O)O)[C@@H](O)[C@H](O)[C@H]2O)c1` [Gemfibrozil glucuronide, reference compound], in data set [1], the IC50 came out at 760 nM.
On to `CC(=O)N1CCN(c2ccc(OCC3COC(Cn4ccnc4)(c4ccc(Cl)cc4Cl)O3)cc2)CC1` (stereo not drawn) [Ketoconazole, reference compound], for which, in data set [2], the 50% inhibitory concentration (IC50) was found to be 3.4 µM.
Take `Cc1ncc2n1-c1ccc(Cl)cc1C(c1ccccc1F)=NC2` [midazolam, 8-chloro-6-(2-fluorophenyl)-1-methyl-4H-imidazo[1,5-a][1,4]]: the dose excreted unchanged in data set [3] is on record as 1%.

These data come from patent publication US20220168307A1, “TREATMENT OF SMA” (Hoffmann-La Roche Inc., priority 2019, published 2022).
